This assay has as its target T1, 1-deoxy-D-xylulose 5-phosphate synthase (DXPS) (Escherichia coli, UniProt P77488).
T1 construct: gene dxs
T1 sequence (P77488 2-620): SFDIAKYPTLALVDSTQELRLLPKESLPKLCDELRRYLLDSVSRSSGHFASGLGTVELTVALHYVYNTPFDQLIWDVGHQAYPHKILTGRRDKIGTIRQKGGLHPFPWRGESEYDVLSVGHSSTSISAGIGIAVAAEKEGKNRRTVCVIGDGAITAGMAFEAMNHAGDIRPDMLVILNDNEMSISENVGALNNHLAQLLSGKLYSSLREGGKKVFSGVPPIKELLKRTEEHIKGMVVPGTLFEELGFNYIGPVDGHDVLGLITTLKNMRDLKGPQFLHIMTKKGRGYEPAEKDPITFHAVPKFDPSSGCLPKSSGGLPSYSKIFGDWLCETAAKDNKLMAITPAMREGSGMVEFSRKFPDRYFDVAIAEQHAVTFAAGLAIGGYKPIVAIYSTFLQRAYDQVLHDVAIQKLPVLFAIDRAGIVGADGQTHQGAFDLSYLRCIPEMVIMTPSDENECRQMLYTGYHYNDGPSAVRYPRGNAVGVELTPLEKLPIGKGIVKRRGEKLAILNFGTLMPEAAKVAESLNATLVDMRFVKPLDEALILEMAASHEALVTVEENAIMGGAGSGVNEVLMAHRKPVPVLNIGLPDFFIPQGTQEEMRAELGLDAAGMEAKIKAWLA
Briefly: DXPS-IspC coupled assay (Morrison Ki); also CD detection of the PLThDP adduct and photo-crosslink in-gel fluorescence labeling. It is filed as biochemical.

SMILES strings stand for the structures.

The Ki is the dissociation constant of the complex between target and ligand, obtained from inhibition or displacement. Low values mean a stronger hold on the target, high ones a looser hold on the target. `C#CCCC1(CCOP(=O)(O)C(C)=O)N=N1` [compound 1, ABP 1] came in with a Ki of 1600 ± 220 nM.
